These results are taken from US20220280661A1, “GLUCOCORTICOID RECEPTOR RADIOLIGANDS AND METHODS FOR THEIR PREPARATION AND USE” (The Regents of the University of California, priority 2019, published 2022).

A word on the Kd: it is the concentration at which binding is half-saturated. A lower Kd goes with a tighter complex.

The structures appear in SMILES notation. Like-named read-outs stand apart in the source and are kept apart here.

Series [1] can be described thus: Plasma protein binding, rapid equilibrium dialysis, mouse plasma. Particulars: mouse, plasma, pH 7.4, mouse plasma. The format is in vitro ADME. As to the method: (§1) Plasma Protein Binding Studies. The rapid equilibrium dialysis (RED) device inserts along with a Teflon base plate (Pierce, Rockford, Ill.) were used for the binding studies. The pH of the human or mouse plasma was adjusted to 7.4 prior to the experiment. DMSO stocks (1 mM) were spiked into the plasma to make a final concentration of 2 μM. The spiked plasma solutions (300 μL) were placed into the sample chamber (indicated by the red ring); and 500 μL of PBS buffer, pH 7.4, was placed into the adjacent chamber. The plate was incubated at 37° C. on an orbital shaker (250 rpm) for 4 hours.
(§2) After 4 hours, from the RED plate, aliquots (100 μL) were removed from each side of the insert (plasma and buffer) and dispensed into the 96-well plate. Subsequently, 100 μL of blank plasma was added to the buffer samples and 100 μL of blank buffer was added to all the collected plasma samples. 300 μL of quench solution (50% acetonitrile, 50% methanol, and 0.05% formic acid, warmed up at 37° C.) containing internal standards was added to each well. Plates were sealed, vortexed, and centrifuged at 4° C. for 15 minutes at 4000 rpm. The supernatant was transferred to fresh plates for LC/MS/MS analysis. The sample were analyzed on LC/MS/MS using an AB Sciex API 4000 instrument, coupled to a Shimadzu LC-20AD LC Pump system. Analytical samples were separated using a Waters Atlantis T3 dC18 reverse phase HPLC column (20 mm×2.1 mm) at a flow rate of 0.5 mL/min. The mobile phase consisted of 0.1% formic acid in water (solvent A) and 0.1% formic acid in acetonitrile (solvent B).
(§3) The percentage of test compound bound to protein was calculated by the following equations:
(§4) % Free=(Concentration in buffer chamber/Concentration in plasma chamber)×100%
A general note: In equilibrium dialysis only unbound substance equilibrates across the membrane.

The next series concerns plasma protein. The series is described as above. It counts as in vitro ADME. Particulars: plasma (rapid equilibrium dialysis device), pH 7.4, mouse plasma. How it is done:
as §1, §2, §3, §4

A further series has as its target T1, PR (Homo sapiens, UniProt P06401).
T1 construct: MCF7 (PR, ER); endogenous in cells; host or cells: MCF7
T1 sequence (P06401 1-933): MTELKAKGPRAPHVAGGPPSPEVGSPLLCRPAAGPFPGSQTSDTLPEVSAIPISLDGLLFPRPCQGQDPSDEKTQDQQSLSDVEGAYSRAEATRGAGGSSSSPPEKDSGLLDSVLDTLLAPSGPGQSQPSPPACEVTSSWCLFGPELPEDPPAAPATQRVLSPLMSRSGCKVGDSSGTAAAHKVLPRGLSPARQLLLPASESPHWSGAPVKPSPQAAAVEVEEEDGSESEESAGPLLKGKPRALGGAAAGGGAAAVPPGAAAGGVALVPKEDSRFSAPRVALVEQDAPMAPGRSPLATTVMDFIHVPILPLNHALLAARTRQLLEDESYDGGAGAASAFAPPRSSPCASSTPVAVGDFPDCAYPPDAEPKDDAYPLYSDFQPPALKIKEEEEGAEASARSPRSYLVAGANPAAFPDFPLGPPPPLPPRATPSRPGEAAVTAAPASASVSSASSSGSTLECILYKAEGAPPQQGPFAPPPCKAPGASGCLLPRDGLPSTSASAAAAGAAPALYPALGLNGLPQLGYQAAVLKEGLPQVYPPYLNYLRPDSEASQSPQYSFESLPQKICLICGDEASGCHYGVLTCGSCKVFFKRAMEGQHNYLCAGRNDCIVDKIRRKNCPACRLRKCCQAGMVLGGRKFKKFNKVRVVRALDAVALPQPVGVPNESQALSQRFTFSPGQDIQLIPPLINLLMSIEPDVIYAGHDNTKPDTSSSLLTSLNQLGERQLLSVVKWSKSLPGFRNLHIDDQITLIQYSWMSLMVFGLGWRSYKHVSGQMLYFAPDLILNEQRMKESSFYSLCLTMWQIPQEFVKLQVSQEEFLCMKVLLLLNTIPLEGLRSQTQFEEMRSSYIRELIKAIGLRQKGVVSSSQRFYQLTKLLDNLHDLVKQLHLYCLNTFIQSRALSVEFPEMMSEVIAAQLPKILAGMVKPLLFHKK
As to the kind of experiment: 3H-ligand displacement assay on cells, PR (MCF7). The format is binding. As to the method: The affinity of YJH08 for GR and the other type 1 subfamily 3 nuclear hormone receptors was evaluated using ^3H-ligand displacement assays on cells. The Kd for subfamily 3 class C nuclear hormone receptors was determined on cells by displacing ^3H-steroidal agonists for the respective receptor. […] The Kd was determined using the following cell lines: DU145 (GR), LNCaP-AR (AR), MCF7 (PR, ER), and HEK293 transiently overexpressing full length human MR.
The cold ligands and ^3H-steroids were co-incubated on cells in PBS at room temperature for one hour. Following incubation, the cells were washed twice with ice cold PBS and the unbound activity was retained for analysis. The cells were lysed with 1 mL of 1M NaOH and collected. Bound and unbound fractions were counted in a liquid scintillation counter and expressed as a percentage of the total activity added per equal relative number of cells. […] These experiments were performed at three concentrations of experimental ligand (1 pM, 100 nM and 10 μM), and a linear extrapolation was used to subtract the non-specific component of binding from each treatment condition. The specific binding component was plotted against the log of the competing ligand and curve fit using a non-linear regression algorithm with PRISM software.

Regarding `COc1cccc2c1-c1ccc3c(c1C(Cc1ccc(F)cc1)O2)C(C)=CC(C)(C)N3` (racemic) [YJH08, 5-(4-fluorobenzyl)-10-methoxy-2,2,4-trimethyl-2,5-dihydro-1H-chromeno[3,4-f]quinoline], the fraction unbound at 4 h, 2 μM in series [1] (duplicate, read-out: % Bound (converted)) is below 0.0001; in series [1] (read-out: % Bound Average (converted)), below 0.0001. For the same molecule, the recovery at 4 h, 2 μM in the series on plasma protein was found to be 100%. This molecule returned a Kd on PR of 555 nM.
